Reference: patent publication US10022354B2, “Pyrrolidine amide compounds as histone demethylase inhibitors” (GENENTECH, INC., priority 2014, dated 2018)

Each compound was assayed against full length KDM5A enzyme (Homo sapiens (Human), UniProt P29375) (assay: KDM5 Enzyme Assay (KDM5A HTRF)). Details: 2 nM full length KDM5A, 100 nM H3K4Me3 peptide, 1 uM 2-OG, 30 min room temperature.
Format: biochemical
Protocol: Full length KDM5A enzyme was expressed and purified inhouse. Biotin-H3K4me3 peptide was purchased from New England Biolabs. HTRF reagents (containing Eu-labeled H3K4me1-2 antibody, and streptavidin-XL665) were purchased from Cis-Bio International. Plates were read on an Envision multi-label plate reader (Perkin Elmer).
The HTRF assay mixture contained 2 nM full length KDM5A enzyme, 100 nM H3K4Me3 peptide substrate, 1 uM 2-OG, 100 uM Fe^2+, 500 uM ascorbate. 50 mM HEPES pH 7.0 buffer, 0.01% Triton-X 100, 2 mM DTT, 0.25% DMSO at a final volume of 10 uL.
The plates were incubated at room temperature for 60 minutes and then read in the Envision plate reader.

Sequence of full length KDM5A enzyme (P29375 whole entry): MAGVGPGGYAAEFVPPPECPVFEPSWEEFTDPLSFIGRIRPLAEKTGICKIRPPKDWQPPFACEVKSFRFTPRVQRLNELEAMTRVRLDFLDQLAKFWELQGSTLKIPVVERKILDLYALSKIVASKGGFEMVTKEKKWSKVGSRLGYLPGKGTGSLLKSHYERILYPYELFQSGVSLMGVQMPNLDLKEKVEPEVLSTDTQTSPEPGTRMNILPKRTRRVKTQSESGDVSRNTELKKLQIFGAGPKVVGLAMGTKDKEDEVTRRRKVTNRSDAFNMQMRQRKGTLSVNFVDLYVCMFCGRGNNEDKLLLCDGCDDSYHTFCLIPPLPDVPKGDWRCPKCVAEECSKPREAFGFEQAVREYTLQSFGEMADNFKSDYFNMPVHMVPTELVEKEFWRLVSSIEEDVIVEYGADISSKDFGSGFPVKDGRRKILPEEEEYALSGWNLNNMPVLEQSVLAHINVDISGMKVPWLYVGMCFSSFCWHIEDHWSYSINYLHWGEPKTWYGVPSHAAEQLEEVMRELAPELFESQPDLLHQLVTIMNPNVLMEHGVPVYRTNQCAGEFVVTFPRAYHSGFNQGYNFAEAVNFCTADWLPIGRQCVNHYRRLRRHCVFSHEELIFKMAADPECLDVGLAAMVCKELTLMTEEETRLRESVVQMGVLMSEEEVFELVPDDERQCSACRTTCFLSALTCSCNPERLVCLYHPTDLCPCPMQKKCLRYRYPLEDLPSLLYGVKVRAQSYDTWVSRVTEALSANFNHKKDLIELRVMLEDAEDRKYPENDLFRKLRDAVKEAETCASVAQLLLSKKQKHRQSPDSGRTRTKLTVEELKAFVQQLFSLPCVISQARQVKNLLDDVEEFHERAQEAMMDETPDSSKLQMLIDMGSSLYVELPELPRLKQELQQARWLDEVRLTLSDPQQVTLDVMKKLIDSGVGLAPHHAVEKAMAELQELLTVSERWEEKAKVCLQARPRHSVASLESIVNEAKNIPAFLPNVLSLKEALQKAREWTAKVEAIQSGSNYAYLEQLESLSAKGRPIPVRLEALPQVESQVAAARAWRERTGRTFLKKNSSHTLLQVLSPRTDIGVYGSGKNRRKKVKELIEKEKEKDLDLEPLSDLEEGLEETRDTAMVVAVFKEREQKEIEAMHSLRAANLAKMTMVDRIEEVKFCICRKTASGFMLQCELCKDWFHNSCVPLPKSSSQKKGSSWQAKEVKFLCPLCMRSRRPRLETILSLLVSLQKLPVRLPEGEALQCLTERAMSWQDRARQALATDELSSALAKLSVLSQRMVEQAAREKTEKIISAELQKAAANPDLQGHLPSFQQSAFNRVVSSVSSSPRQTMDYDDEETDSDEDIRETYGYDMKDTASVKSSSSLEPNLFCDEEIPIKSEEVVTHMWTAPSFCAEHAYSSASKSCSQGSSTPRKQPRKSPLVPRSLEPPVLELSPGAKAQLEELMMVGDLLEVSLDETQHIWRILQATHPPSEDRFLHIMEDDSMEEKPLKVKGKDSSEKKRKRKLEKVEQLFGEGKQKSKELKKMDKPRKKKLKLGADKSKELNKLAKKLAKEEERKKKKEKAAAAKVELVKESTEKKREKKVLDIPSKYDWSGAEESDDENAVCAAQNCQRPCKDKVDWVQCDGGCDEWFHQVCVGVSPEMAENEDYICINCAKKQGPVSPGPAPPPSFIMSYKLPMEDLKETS

Compound | IC50 [nM]
CC(C)n1cnc(C(=O)N2CCC(NC(=O)C3CC3)C2)c1 (centres unmarked) [Example 19, N-(1-(1-isopropyl-1H-imidazole-4-carbonyl)pyrrolidin-3-yl)cyclopropanecarboxamide] | 0.21
CNC(=O)NC1CCN(C(=O)c2cc(C(C)C)n[nH]2)C1 (centres unmarked) [Example 34, 1-(1-(3-Isopropyl-1H-pyrazole-5-carbonyl)pyrrolidin-3-yl)-3-methylurea] | 0.058
Cc1cc(-c2cnn(Cc3ccccc3)c2)cc(C2CCN(C(=O)c3cc(C(C)C)n[nH]3)C2)n1 (centres unmarked) [Example 69] | 0.11
CC(C)c1cc(C(=O)N2C[C@H](NC(=O)C3CC3)[C@@H](F)C2)[nH]n1 [Example 218] | 0.05
CC(C)c1cc(C(=O)N2CC[C@@H](NC(=O)[C@@H]3C[C@H]3F)C2)[nH]n1 [Example 232] | 0.14
CC(C)c1cc(C(=O)N2CCC(NC(=O)c3ccc4[nH]ccc4c3)C2)[nH]n1 (centres unmarked) [Example 121] | 0.066
CC(C)c1cc(C(=O)N2CCC(NC(=O)C3(c4ccccc4)CC3)C2)[nH]n1 (centres unmarked) [Example 138] | 0.26
CC(=O)NC(C)c1cc(C(=O)N2CCC(NC(=O)C3CC3)C2)n[nH]1 (centres unmarked) [Example 216] | 6.6
CC(C)c1cc(C(=O)N2CCC(n3cc(Br)c(C(F)F)n3)C2)[nH]n1 (centres unmarked) [Example 239] | 0.35
CC(C)c1cc(C(=O)N2CCC(NC(=O)c3cccnc3)C2)[nH]n1 (centres unmarked) [Example 109] | 0.76
CC(C)c1cc(C(=O)N2CCC(NC(=O)C(C)(C)C)C2)[nH]n1 (centres unmarked) [Example 168] | 0.2
CC(C)c1cc(C(=O)N2CC[C@@H](NC(=O)[C@H]3C[C@@H]3F)C2)[nH]n1 [Example 231] | 0.33
Cc1cc(-c2ccc(C#N)cc2)cc(C2CCN(C(=O)c3cc(C(C)C)n[nH]3)C2)n1 (centres unmarked) [Example 68] | 0.29
COc1ccc(C(=O)NC2CCN(C(=O)c3cc(C(C)C)n[nH]3)C2)cc1 (centres unmarked) [Example 160] | 0.27
Cc1cc(-c2cnn(C(F)F)c2)cc(C2CCN(C(=O)c3cc(C(C)C)n[nH]3)C2)n1 (centres unmarked) [Example 76] | 1.7
CC(c1cc(C(=O)N2CCC(NC(=O)C3CC3)C2)[nH]n1)C(F)(F)F (centres unmarked) [Example 24, N-(1-(3-(1,1,1-trifluoropropan-2-yl)-1H-pyrazole-5-carbonyl)pyrrolidin-3-yl) cyclopropanecarboxamide] | 1.2
CC(C)c1cc(C(=O)N2CCC(NC(=O)C3CCOCC3)C2)[nH]n1 (centres unmarked) [Example 154] | 0.4

Compound | IC50 [nM]
CC(C)c1cc(C(=O)N2CCC(NC(=O)C3CNC3)C2)[nH]n1 (centres unmarked) [Example 118] | 5.2
CC(C)c1cc(C(=O)N2CCC(NC(=O)C3(c4cccnc4)CC3)C2)n[nH]1 (centres unmarked) [Example 184] | 1.2
CC(C)c1cc(C(=O)N2CCC(c3ccc(-c4ccccc4)cn3)C2)[nH]n1 (centres unmarked) [Example 106] | 1.4
CCCCc1cc(C(=O)N2CCC(NC(=O)C3CC3)C2)[nH]n1 (centres unmarked) [Example 213] | 0.81
CC(F)c1cc(C(=O)N2CCC(NC(=O)C3CC3)C2)[nH]n1 (centres unmarked) [Example 17, N-(1-(3-(1-fluoroethyl)-1H-pyrazole-5-carbonyl)pyrrolidin-3-yl)cyclopropanecarboxamide] | 25
CC(C)Oc1ccccc1C(=O)NC1CCN(C(=O)c2cc(C(C)C)n[nH]2)C1 (centres unmarked) [Example 201] | 0.092
CC(C)c1cc(C(=O)N2CC[C@@H](NC(=O)C3(C#N)CC3)C2)[nH]n1 [Example 226] | 0.23
CCn1ccc(C(=O)NC2CCN(C(=O)c3cc(C(C)C)n[nH]3)C2)n1 (centres unmarked) [Example 165] | 0.11
CC(C)c1cc(C(=O)N2CCC(NC(=O)C3(C(F)(F)F)CC3)C2)[nH]n1 (centres unmarked) [Example 172] | 0.92
CCCC(=O)NC1CCN(C(=O)c2cc(C(C)C)n[nH]2)C1 (centres unmarked) [Example 124] | 0.15
CC1CC(C(=O)NC2CCN(C(=O)c3cc(C(C)C)n[nH]3)C2)C1 (centres unmarked) [Example 131] | 0.84
CC(C)Oc1cc(C(=O)N2CCC(NC(=O)C3CC3)C2)[nH]n1 (centres unmarked) [Example 26, N-(1-(3-isopropoxy-1H-pyrazole-5-carbonyl)pyrrolidin-3-yl)cyclopropanecarboxamide] | 8.4
CC(C)c1cc(C(=O)N2CCC(c3ccncn3)C2)[nH]n1 (centres unmarked) [Example 100] | 9.8
CC(C)c1cc(C(=O)N2CCC(NC(=O)c3ncccn3)C2)n[nH]1 (centres unmarked) [Example 197] | 0.31
Cc1cc(NS(C)(=O)=O)cc(C2CCN(C(=O)c3cc(C(C)C)n[nH]3)C2)n1 (centres unmarked) [Example 56] | 16
CC(C)c1cc(C(=O)N2CCC(C)(NC(=O)C3CC3)C2)[nH]n1 (centres unmarked) [Example 15, N-(1-(3-isopropyl-1H-pyrazole-5-carbonyl)-3-methylpyrrolidin-3-yl)cyclopropanecarboxamide] | 2

Further lines, results first:

IC50 [nM] | Compound
0.14 | CCC1(C(=O)NC2CCN(C(=O)c3cc(C(C)C)n[nH]3)C2)CC1 (centres unmarked) [Example 141]
0.077 | CC(C)c1cc(C(=O)N2CC[C@H](NC(=O)c3ccccc3)C2)[nH]n1 [Example 117]
0.11 | CC(C)c1cc(C(=O)N2CC[C@H](NC(=O)C3(C)CC3)C2)[nH]n1 [Example 225]
0.67 | Cc1cc(-c2cnc(C)s2)cc(C2CCN(C(=O)c3cc(C(C)C)n[nH]3)C2)n1 (centres unmarked) [Example 81]
8.6 | Cc1cc(OC(C)C)cc(C2CCN(C(=O)c3cc(C(C)C)n[nH]3)C2)n1 (centres unmarked) [Example 9, (3-(4-Isopropoxy-6-methylpyridin-2-yl)pyrrolidin-1-yl)(3-isopropyl-1H-pyrazol-5-yl)methanone]
0.28 | CC(C)c1cc(C(=O)N2CCC(NC(=O)Nc3ccccc3)C2)[nH]n1 (centres unmarked) [Example 114]
1.1 | CC(C)c1cc(C(=O)N2CCC(NC(=O)c3cnccn3)C2)n[nH]1 (centres unmarked) [Example 199]
7.4 | Cc1cc(C(=O)N(C)C)cc(C2CCN(C(=O)c3cc(C(C)C)n[nH]3)C2)n1 (centres unmarked) [Example 5, 2-(1-(3-Isopropyl-1H-pyrazole-5-carbonyl)pyrrolidin-3-yl)-N,N,6-trimethylisonicotinamide]
0.46 | CC(C)c1cc(C(=O)N2CCC(NC(=O)CC(F)(F)F)C2)[nH]n1 (centres unmarked) [Example 194]
0.37 | Cc1cc(-c2cnn(C)c2C)cc(C2CCN(C(=O)c3cc(C(C)C)n[nH]3)C2)n1 (centres unmarked) [Example 89]
0.26 | CCC(=O)NC1CCN(C(=O)c2cc(C(C)C)n[nH]2)C1 (centres unmarked) [Example 123]
0.38 | CC(C)c1cc(C(=O)N2CCC(NC(=O)C3CCCO3)C2)[nH]n1 (centres unmarked) [Example 161]
0.59 | COC(=O)NC1CCN(C(=O)c2cc(C(C)C)n[nH]2)C1 (centres unmarked) [Example 115]
17 | Nc1cc(C(=O)N2CCC(NC(=O)C3CC3)C2)[nH]n1 (centres unmarked) [Example 209]
12 | Cc1cc(C)n(C2CCN(C(=O)c3cc(C(C)C)n[nH]3)C2)n1 (centres unmarked) [Example 233]
0.91 | CCc1cc(C(=O)N2CCC(c3cc(-c4cnn(C)c4)cc(C)n3)C2)[nH]n1 (centres unmarked) [Example 45]

IC50 [nM] | Compound
14 | O=C(NC1CCN(C(=O)c2cc(Br)n[nH]2)C1)C1CC1 (centres unmarked) [Example 205]
0.84 | Cc1cc(-c2cnn(C)c2)cc([C@@H]2CCN(C(=O)c3cc(C(C)C)n[nH]3)C2)n1 (single isomer, unassigned) [Example 2]
0.078 | CC(C)c1cc(C(=O)N2CCC(NC(=O)c3ccc4[nH]ccc4n3)C2)[nH]n1 (centres unmarked) [Example 177]
0.34 | CC(C)c1cc(C(=O)N2CCC(n3cc4c(n3)CCC4)C2)[nH]n1 (centres unmarked) [Example 235]
3.6 | Cc1cc(-c2cnn(C)c2)cc(C2CCN(C(=O)c3cc(-c4ccccc4)n[nH]3)C2)n1 (centres unmarked) [Example 49]
4.2 | CNC(=O)c1cc(C)nc(C2CCN(C(=O)c3cc(C(C)C)n[nH]3)C2)c1 (centres unmarked) [Example 53]
0.074 | CC(C)c1cc(C(=O)N2CCC(NC(=O)c3cccc(F)c3)C2)[nH]n1 (centres unmarked) [Example 156]
0.4 | Cc1cc(-c2cnn(C)c2)cc(C2CCN(C(=O)c3cc(C4CC4)n[nH]3)C2)n1 (centres unmarked) [Example 47]
0.35 | CC(C)c1cc(C(=O)N2CC[C@@H](n3cc4ccccc4n3)C2)[nH]n1 [Example 242]
0.2 | CC(C)c1cc(C(=O)N2CCC(NC(=O)c3ccc(F)cc3)C2)[nH]n1 (centres unmarked) [Example 157]
0.25 | CC(C)c1cc(C(=O)N2CCC(NC(=O)c3ncccc3F)C2)n[nH]1 (centres unmarked) [Example 200]
0.26 | Cc1cc(-c2ccccc2Cl)cc(C2CCN(C(=O)c3cc(C(C)C)n[nH]3)C2)n1 (centres unmarked) [Example 83]
6.5 | CC(C)c1cc(C(=O)N2CCC(C(=O)Nc3ccccc3)C2)[nH]n1 (centres unmarked) [Example 187]
0.073 | COc1ccccc1C(=O)NC1CCN(C(=O)c2cc(C(C)C)n[nH]2)C1 (centres unmarked) [Example 158]
0.92 | CC(C)c1cc(C(=O)N2CC[C@@H](n3ncc4ccccc43)C2)[nH]n1 [Example 243]

What follows are compounds tested on H3K4Me3 mark level in PC9 cells (assay: KDM5 Cell Assay (H3K4Me3 mark level, PC9 HTRF)). Details: Homo sapiens, PC-9, 120 hours at 37° C.
Format: cell-based
Protocol: PC9 cells were seeded in a 384 well plate (2000 cells/well) with a test compound and incubated for 120 hours at 37° C. H3K4Me3 mark level was assessed using HTRF reagents from CisBio. Briefly, media was removed and cells were lysed in 20 μL of Epigeneous Cell Histone lysis buffer C for 45 min at 26° C., shaking. 10 μL of 4 μg/mL acceptor antibody (H3K4me3-d2) and 10 μL of 1.2 μg/mL donor antibody (Total H3-K) in Cell Histone detection buffer were added and the mixture was incubated at 26° C. for 1 hour. Assay plate was read subsequently on Envision (Perkin Elmer). Each compound was run in duplicate. Data were normalized to DMSO treated wells as the low response and EC50's were calculate using a four-parameter fit.

Compound | EC50 [nM]
CC(C)n1cnc(C(=O)N2CCC(NC(=O)C3CC3)C2)c1 (centres unmarked) [Example 19, N-(1-(1-isopropyl-1H-imidazole-4-carbonyl)pyrrolidin-3-yl)cyclopropanecarboxamide] | 26
CNC(=O)NC1CCN(C(=O)c2cc(C(C)C)n[nH]2)C1 (centres unmarked) [Example 34, 1-(1-(3-Isopropyl-1H-pyrazole-5-carbonyl)pyrrolidin-3-yl)-3-methylurea] | 2.3
Cc1cc(-c2cnn(Cc3ccccc3)c2)cc(C2CCN(C(=O)c3cc(C(C)C)n[nH]3)C2)n1 (centres unmarked) [Example 69] | 15
CC(C)c1cc(C(=O)N2C[C@H](NC(=O)C3CC3)[C@@H](F)C2)[nH]n1 [Example 218] | 1.7
CC(C)c1cc(C(=O)N2CC[C@@H](NC(=O)[C@@H]3C[C@H]3F)C2)[nH]n1 [Example 232] | 5

Other lines, results leading:

EC50 [nM] | Compound
4.8 | CC(C)c1cc(C(=O)N2CC[C@@H](NC(=O)c3ccccc3)C2)[nH]n1 [Example 183]
6.5 | CCC1(C(=O)NC2CCN(C(=O)c3cc(C(C)C)n[nH]3)C2)CC1 (centres unmarked) [Example 141]
8.2 | CC(C)c1cc(C(=O)N2CC[C@H](NC(=O)c3ccccc3)C2)[nH]n1 [Example 117]
14 | CC(C)c1cc(C(=O)N2CC[C@H](NC(=O)C3(C)CC3)C2)[nH]n1 [Example 225]
1.7 | CC(C)c1cc(C(=O)N2CCC(NC(=O)C3CC3)C2)[nH]n1 (centres unmarked) [Example 151]
